Assay results taken from US20250127753A1, “PHARMACEUTICAL APPLICATION OF DIMYRICETIN-YL-DISELENIDE IN TUMORS” (Shanghai Spark Pharmaceutical Co., Ltd., priority 2023, published 2025).

Columns and labels:
T24 = assay: In vitro cell viability (CTG), T24; assay type: cell-based, Human; details: T24 cells, 72 hours, CTG assay
Method: (§1) Collect cells in the exponential growth phase and count viable cells separately using a cell counter. Adjust the cell suspension to an appropriate concentration with the corresponding culture medium. Add 90 μL of the cell suspension to each well of a 96-well cell culture plate, with 3 replicate wells containing 5000 cells/well. Place the plate in an incubator at 37° C. with 5% CO2 overnight.
(§2) On the second day, add 10 μL of dimyricetin diselenide and cisplatin to the corresponding wells. The highest final concentration of dimyricetin diselenide is 300 μg/ml (i.e., 379 μM), and the highest final concentration of cisplatin is 300 μM. A total of 9 concentrations are prepared with a 3-fold dilution.
(§3) After 72 hours, detect cell viability using the CTG assay.
(§4) Using GraphPad Prism 8.0 software, an S-shaped dose-survival curve was plotted with log (inhibitor) as the x-axis and response as the y-axis, adopting the Variable slope (four parameters) model to calculate the IC50 value.

MBT-2 = assay: In vitro cell viability (CTG), MBT-2; assay type: cell-based, Mouse; details: MBT-2 cells, 72 hours, CTG assay
Method: as §1, §2, §3, §4

HCC1954 = assay: In vitro cell viability (CTG), HCC1954; assay type: cell-based, Human; details: HCC1954 cells, 72 hours, CTG assay
Method: as §1, §2, §3, §4

EMT-6 = assay: In vitro cell viability (CTG), EMT-6; assay type: cell-based, Mouse; details: EMT-6 cells, 72 hours, CTG assay
Method: as §1, §2, §3, §4

HCT116 = assay: In vitro cell viability (CTG), HCT116; assay type: cell-based, Human; details: HCT116 cells, 72 hours, CTG assay
Method: as §1, §2, §3, §4

CT-26.WT = assay: In vitro cell viability (CTG), CT-26.WT; assay type: cell-based, Mouse; details: CT-26.WT cells, 72 hours, CTG assay
Method: as §1, §2, §3, §4

MKN45 = assay: In vitro cell viability (CTG), MKN45; assay type: cell-based, Human; details: MKN45 cells, 72 hours, CTG assay
Method: as §1, §2, §3, §4

MFC = assay: In vitro cell viability (CTG), MFC; assay type: cell-based, Mouse; details: MFC cells, 72 hours, CTG assay
Method: as §1, §2, §3, §4

786-O = assay: In vitro cell viability (CTG), 786-O; assay type: cell-based, Human; details: 786-O cells, 72 hours, CTG assay
Method: as §1, §2, §3, §4

Renca = assay: In vitro cell viability (CTG), Renca; assay type: cell-based, Mouse; details: Renca cells, 72 hours, CTG assay
Method: as §1, §2, §3, §4

Hep G2 = assay: In vitro cell viability (CTG), Hep G2; assay type: cell-based, Human; details: Hep G2 cells, 72 hours, CTG assay
Method: as §1, §2, §3, §4

H22 = assay: In vitro cell viability (CTG), H22; assay type: cell-based, Mouse; details: H22 cells, 72 hours, CTG assay
Method: as §1, §2, §3, §4

HCC827 = assay: In vitro cell viability (CTG), HCC827; assay type: cell-based, Human; details: HCC827 cells, 72 hours, CTG assay
Method: as §1, §2, §3, §4

LL/2(LLC1) = assay: In vitro cell viability (CTG), LL/2(LLC1); assay type: cell-based, Mouse; details: LL/2(LLC1) cells, 72 hours, CTG assay
Method: as §1, §2, §3, §4

A375 = assay: In vitro cell viability (CTG), A375; assay type: cell-based, Human; details: A375 cells, 72 hours, CTG assay
Method: as §1, §2, §3, §4

B16-F10 = assay: In vitro cell viability (CTG), B16-F10; assay type: cell-based, Mouse; details: B16-F10 cells, 72 hours, CTG assay
Method: as §1, §2, §3, §4

PANC-1 = assay: In vitro cell viability (CTG), PANC-1; assay type: cell-based, Human; details: PANC-1 cells, 72 hours, CTG assay
Method: as §1, §2, §3, §4

Panc 02 = assay: In vitro cell viability (CTG), Panc 02; assay type: cell-based, Mouse; details: Pance 02 cells, 72 hours, CTG assay
Method: as §1, §2, §3, §4

DU145 = assay: In vitro cell viability (CTG), DU145; assay type: cell-based, Human; details: DU145 cells, 72 hours, CTG assay
Method: as §1, §2, §3, §4

RM-1 = assay: In vitro cell viability (CTG), RM-1; assay type: cell-based, Mouse; details: RM-1 cells, 72 hours, CTG assay
Method: as §1, §2, §3, §4

[1] = system: H22 subcutaneous transplanted tumor; assay: Pharmacodynamics of subcutaneous transplanted tumor in vivo (H22); parameters: species or system BALB/c mice
Method: • Animal species and strain: BALB/c mice • Drug administration history: None • Gender and age: Female, 6-7 weeks old • Breeder/supplier: Shanghai Jihui Laboratory Animal Breeding Co., Ltd. or other qualified suppliers • Experimental facility: Pengli Biology Animal Facility • Acclimation period: 3-7 days • Number of animals: 42 • Housing: SPF (Specific Pathogen Free) area • Indoor temperature: 20-26° C. • Indoor relative humidity: 40-70% • Lighting: Fluorescent lighting, 12 hours on (08:00-20:00) and 12 hours off • Animal housing: 2-6 mice per cage (same treatment group) • Food: Ad libitum access to irradiated feed (supplied by Jiangsu Xie Tong Pharmaceutical Bioengineering Co., Ltd., China) • Water: Ad libitum access to drinking water (tap water treated by reverse osmosis or autoclaving and acidified)
BALB/c mice were purchased from Shanghai Jihui Laboratory Animal Breeding Co., Ltd. for the H22 efficacy experiment. The animals were free of specific pathogens and arrived at Pengli Biology Animal Facility at approximately 5-6 weeks of age. The proposed animal handling procedures for the experimental protocol will be reviewed and approved by the IACUC (Institutional Animal Care and Use Committee) of Pengli Biology before the start of the experiment.
The H22 cell line used in this experiment was cultured in RPMI-1640 medium supplemented with 10% FBS in a CO2 incubator at 37° C. Prior to continuous culturing for ten passages, approximately 3×10^6 H22 cells were suspended in PBS and subcutaneously inoculated into each mouse at a volume of 100 μL. Mice were anesthetized with 3-4% isoflurane before inoculation.
When tumors grew to an average size of approximately 50-80 mm3, tumor-bearing mice were randomly divided into 4 groups of 8 mice each based on body weight and tumor size. The day of group assignment and drug administration was defined as Day 0. The grouping and dosing regimen are outlined in the table below.
Tumor Volume: Measure the tumor volume twice weekly after grouping for a consecutive 4 weeks. The calculation method for tumor volume (V) is as follows: V=(Length×Width^2)/2. The relative tumor volume (RTV) for each nude mouse is calculated as: RTV=Vt/V0, where Vt is the measured volume for each day and V0 is the volume at the start of treatment.
Relative Tumor Proliferation Rate (T/C %): Used to evaluate the antitumor activity of the drug. The relative tumor proliferation rate T/C (%) is calculated as the mean RTV of the treatment group (T) divided by the mean RTV of the negative control group (C), multiplied by 100%.
Tumor Growth Inhibition (TG1%): TG1%=(1−T/C)×100%, where T is the mean RTV of the treatment group and C is the mean RTV of the negative control group.

SK-OV-3 = assay: In vitro cell viability (CTG), SK-OV-3; assay type: cell-based, Human; details: SK-OV-3 cells, 72 hours, CTG assay
Method: as §1, §2, §3, §4

tumor cells = assay: In vitro cell experiment, overall statement on the tumor cell panel; assay type: cell-based; details: 21 tumor cell lines, 72 hours, CTG assay
Method: as §1, §2, §3, §4

## N.N.[Cl][Pt][Cl] [Cisplatin, reference compound]
T24
  IC50: 3.71 µM
MBT-2
  IC50: 9.91 µM
HCC1954
  IC50: 13.2 µM
EMT-6
  IC50: 6.58 µM
HCT116
  IC50: 7.01 µM
CT-26.WT
  IC50: 7.48 µM
MKN45
  IC50: 6.7 µM
MFC
  IC50: 5.96 µM
786-O
  IC50: 3.68 µM
Renca
  IC50: 6.03 µM
Hep G2
  IC50: 8.49 µM
H22
  IC50: 2.17 µM
HCC827
  IC50: 15.1 µM
LL/2(LLC1)
  IC50: 10.6 µM
A375
  IC50: 5.36 µM
B16-F10
  IC50: 16.9 µM
PANC-1
  IC50: 13.8 µM
Panc 02
  IC50: 9.86 µM
DU145
  IC50: 3.59 µM
RM-1
  IC50: 3.83 µM
[1]; G2, 1 mg/kg i.v. BIW, 0 day (baseline)
  TV (tumor volume): 75.96 mm^3
[1]; G2, 1 mg/kg i.v. BIW, 3 days
  TGI (tumor growth inhibition): −3.49%
  TV (tumor volume): 288.49 mm^3
[1]; G2, 1 mg/kg i.v. BIW, 5 days
  TGI (tumor growth inhibition): 6.13%
  TV (tumor volume): 351.18 mm^3
[1]; G2, 1 mg/kg i.v. BIW, 7 days
  TGI (tumor growth inhibition): 22.78%
  TV (tumor volume): 597.48 mm^3
[1]; G2, 1 mg/kg i.v. BIW, 10 days
  TGI (tumor growth inhibition): 30.23%
  TV (tumor volume): 821.76 mm^3
[1]; G2, 1 mg/kg i.v. BIW, 12 days
  TGI (tumor growth inhibition): 36.46%
  TV (tumor volume): 1081.49 mm^3
[1]; G2, 1 mg/kg i.v. BIW, 14 days
  TGI (tumor growth inhibition): 39.56%
  TV (tumor volume): 1627.00 mm^3

## Dimyricetin-yl-diselenide
T24
  IC50: 7.69 µM
MBT-2
  IC50: 10.8 µM
HCC1954
  IC50: 9.86 µM
EMT-6
  IC50: 3.16 µM
HCT116
  IC50: 5.52 µM
CT-26.WT
  IC50: 5.65 µM
MKN45
  IC50: 12 µM
MFC
  IC50: 9.55 µM
786-O
  IC50: 5.14 µM
Renca
  IC50: 5.17 µM
Hep G2
  IC50: 12.6 µM
H22
  IC50: 6.64 µM
HCC827
  IC50: 10 µM
LL/2(LLC1)
  IC50: 14.6 µM
A375
  IC50: 5.2 µM
B16-F10
  IC50: 13.1 µM
PANC-1
  IC50: 10.3 µM
Panc 02
  IC50: 14.3 µM
DU145
  IC50: 8.79 µM
RM-1
  IC50: 5.12 µM
SK-OV-3
  IC50: 6.52 µM
[1]; 40 mg/kg dose group
  tumor inhibition compared with the positive control (cisplatin): better tumor inhibition than the positive control
[1]; G3, 40 mg/kg s.c. QD, 0 day (baseline)
  TV (tumor volume): 75.71 mm^3
[1]; G3, 40 mg/kg s.c. QD, 3 days
  TGI (tumor growth inhibition): 9.88%
  TV (tumor volume): 257.17 mm^3
[1]; G3, 40 mg/kg s.c. QD, 5 days
  TGI (tumor growth inhibition): 5.58%
  TV (tumor volume): 355.24 mm^3
[1]; G3, 40 mg/kg s.c. QD, 7 days
  TGI (tumor growth inhibition): 34.02%
  TV (tumor volume): 532.85 mm^3
[1]; G3, 40 mg/kg s.c. QD, 10 days
  TGI (tumor growth inhibition): 41.86%
  TV (tumor volume): 711.79 mm^3
[1]; G3, 40 mg/kg s.c. QD, 12 days
  TGI (tumor growth inhibition): 38.64%
  TV (tumor volume): 1066.44 mm^3
[1]; G3, 40 mg/kg s.c. QD, 14 days
  TGI (tumor growth inhibition): 60.23%
  TV (tumor volume): 1108.65 mm^3
[1]; G4, 20 mg/kg s.c. QD, 0 day (baseline)
  TV (tumor volume): 75.31 mm^3
[1]; G4, 20 mg/kg s.c. QD, 3 days
  TGI (tumor growth inhibition): 29.01%
  TV (tumor volume): 218.25 mm^3
[1]; G4, 20 mg/kg s.c. QD, 5 days
  TGI (tumor growth inhibition): 19.28%
  TV (tumor volume): 314.27 mm^3
[1]; G4, 20 mg/kg s.c. QD, 7 days
  TGI (tumor growth inhibition): 32.35%
  TV (tumor volume): 544.04 mm^3
[1]; G4, 20 mg/kg s.c. QD, 10 days
  TGI (tumor growth inhibition): 39.14%
  TV (tumor volume): 741.18 mm^3
[1]; G4, 20 mg/kg s.c. QD, 12 days
  TGI (tumor growth inhibition): 29.67%
  TV (tumor volume): 1210.83 mm^3
[1]; G4, 20 mg/kg s.c. QD, 14 days
  TGI (tumor growth inhibition): 43.53%
  TV (tumor volume): 1542.11 mm^3
[1]; H22 model, 40 and 20 mg/kg s.c.
  inhibitory effect on the liver cancer tumor model in vivo: significant inhibitory effect
Tumor cells
  inhibitory effect on tumor cells in vitro: significant inhibitory effect
